From patent publication US20230391772A1, “METHODS AND COMPOSITIONS FOR TARGETED PROTEIN DEGRADATION” (Ranok Therapeutics (Hangzhou) Co. Ltd., priority 2020, published 2023)

Legend:
[1] = test system: MIA PaCa-2 human pancreatic carcinoma; assay: MIA PaCa-2 CCK-8 proliferation assay; type: cell-based; conditions: Homo sapiens, MIA PaCa-2, 72 h, MIA PaCa-2 cells
Outline: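 Proliferation of mutant-KRAS(G12C) cells (2 copies in MIA PaCa-2, single copy in NCI-H358/NCI-H23) measured with CCK-8 after treatment across 20 μM–1.02 nM; inhibition expressed relative to vehicle-treated wells after subtracting no-cell background.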

KRAS(G12C) [2] = target: T1, KRAS(G12C) (Homo sapiens, UniProt P01116, G12C); assay: KRAS(G12C)/SOS1 homogeneous time-resolved fluorescence (HTRF) assay; parameters: purchased Cisbio 63ADK000CB16PEG; conditions: absence of GTP, 4° C. for 3 hr, read-out: KRAS (G12C) binding
T1 sequence (P01116 1-188 isoform P01116-2 G12C): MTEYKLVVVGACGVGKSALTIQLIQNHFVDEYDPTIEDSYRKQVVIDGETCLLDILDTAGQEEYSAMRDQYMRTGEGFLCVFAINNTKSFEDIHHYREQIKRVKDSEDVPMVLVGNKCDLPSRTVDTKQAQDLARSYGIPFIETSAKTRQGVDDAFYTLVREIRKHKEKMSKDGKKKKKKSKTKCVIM
Outline: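 Three-hour incubation at 4 °C of 3-fold compound dilutions (lowest 1.02 nM) with KRAS(G12C), SOS1 and detection reagents, GTP absent. Disruption of the KRAS(G12C)/SOS1 complex detected by time-resolved fluorescence.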

KRAS(G12C) [3] = target: T1, KRAS(G12C); assay: KRAS(G12C) Western blot protein degradation assay in LU65A cells; type: cell-based; parameters: LU65A human lung cancer cell line, which expresses KRAS(G12C); host or cells: LU65A; conditions: 6 hr
Outline: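 KRAS levels read by fluorescent Western blot (β-actin as reference) on BCA-normalized lysates. Exposure to a compound concentration range at 37 °C lasted 6 hr in LU65A and 48 hr in MIA PaCa-2; DC50 taken as half-maximal degradation concentration.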

With C=CC(=O)N1CCN(c2nc(OC[C@@H]3CC[C@H](CN4CCN(C(=O)C5CCN(Cc6ccc(-n7c(C(=O)NCC)nnc7-c7cc(C(C)C)c(O)cc7O)cc6)CC5)CC4)N3C)nc3c2CCN(c2cccc4ccc(F)c(Cl)c24)C3)C[C@@H]1CC#N [Compound 269, 4-(4-{[4-(4-{[(2R,5S)-5-({[7-(8-chloro-7-fluoronaphthalen-1-yl)-4-[(3S)-3-(cyanomethyl)-4-(prop-2-enoyl)piperazin-1-yl]-5H,6H,8H-pyrido[3,4-d]pyrimidin-2-yl]oxy}methyl)-1-methylpyrrolidin-2-yl]methyl}piperazine-1-carbonyl)piperidin-1-yl]methyl}phenyl)-5-(2,4-dihydroxy-5-isopropylphenyl)-N-ethyl-1,2,4-triazole-3-carboxamide] as the molecule, how does the EC50 [1] read?
Its EC50 is less than 100 nM.

What about the IC50 (KRAS(G12C) [2]) of the same molecule?
Its IC50 is less than 100 nM.

And the DC50 (KRAS(G12C) [3])?
Its DC50 is greater than 1000 nM.

Which EC50 [1] does the source give for C=CC(=O)N1CCN(c2nc(OC[C@@H]3CC[C@H](CN4CCN(C(=O)C5CCN(Cc6ccc(-n7c(C(=O)NCC)nnc7-c7cc(C(C)C)c(O)cc7O)cc6)CC5)CC4)N3C)nc3c2CCN(c2cccc4cccc(C)c24)C3)C[C@@H]1CC#N [Compound 274, 4-(4-{[4-(4-{[(2R,5S)-5-[({4-[(3S)-3-(cyanomethyl)-4-(prop-2-enoyl)piperazin-1-yl]-7-(8-methylnaphthalen-1-yl)-5H,6H,8H-pyrido[3,4-d]pyrimidin-2-yl}oxy)methyl]-1-methylpyrrolidin-2-yl]methyl}piperazine-1-carbonyl)piperidin-1-yl]methyl}phenyl)-5-(2,4-dihydroxy-5-isopropylphenyl)-N-ethyl-1,2,4-triazole-3-carboxamide] here?
Its EC50 is 100 to 1000 nM.

What about the IC50 (KRAS(G12C) [2]) of the same molecule?
Its IC50 is less than 100 nM.

What about the DC50 (KRAS(G12C) [3]) of the same molecule?
The DC50 was greater than 1000 nM.

Which EC50 [1] does the source give for C=CC(=O)N1CCN(c2nc(OC[C@@H]3C[C@H](N4CCN(CC5CCN(Cc6ccc(-n7c(O)nnc7-c7cc(C(C)C)c(O)cc7O)cc6)CC5)CC4)CN3C)nc3c2CCN(c2cccc4cccc(Cl)c24)C3)C[C@@H]1CC#N [Compound 275, 2-[(2S)-4-[7-(8-chloronaphthalen-1-yl)-2-{[(2S,4S)-4-(4-{[1-({4-[3-(2,4-dihydroxy-5-isopropylphenyl)-5-hydroxy-1,2,4-triazol-4-yl]phenyl}methyl)piperidin-4-yl]methyl}piperazin-1-yl)-1-methylpyrrolidin-2-yl]methoxy}-5H,6H,8H-pyrido[3,4-d]pyrimidin-4-yl]-1-(prop-2-enoyl)piperazin-2-yl]acetonitrile] here?
The EC50 was 100 to 1000 nM.

What about the IC50 (KRAS(G12C) [2]) of the same molecule?
The IC50 was less than 100 nM.

And the DC50 (KRAS(G12C) [3])?
Its DC50 is 100 to 1000 nM.

What does the source list for C=CC(=O)N1CCN(c2nc(OC[C@@H]3C[C@H](N4CCN(CC5CCN(Cc6ccc(-n7c(C(=O)NCC)nnc7-c7cc(C(C)C)c(O)cc7O)cc6)CC5)CC4)CN3C)nc3c2CCN(c2cccc4cccc(Cl)c24)C3)C[C@@H]1CC#N [Compound 276, 4-(4-{[4-({4-[(3S,5S)-5-({[7-(8-chloronaphthalen-1-yl)-4-[(3S)-3-(cyanomethyl)-4-(prop-2-enoyl)piperazin-1-yl]-5H,6H,8H-pyrido[3,4-d]pyrimidin-2-yl]oxy}methyl)-1-methylpyrrolidin-3-yl]piperazin-1-yl}methyl)piperidin-1-yl]methyl}phenyl)-5-(2,4-dihydroxy-5-isopropylphenyl)-N-ethyl-1,2,4-triazole-3-carboxamide]?
EC50 [1]: < 100 nM; IC50 (KRAS(G12C) [2]): < 100 nM; DC50 (KRAS(G12C) [3]): > 1000 nM

With C=CC(=O)N1CCN(c2nc(OC[C@@H]3C[C@H](N4CCN(Cc5ccc(-n6c(O)nnc6-c6cc(C(C)C)c(O)cc6O)cc5)CC4)CN3C)nc3c2CCN(c2cccc4ccc(F)c(Cl)c24)C3)C[C@@H]1CC#N [Compound 277, 2-[(2S)-4-[7-(8-chloro-7-fluoronaphthalen-1-yl)-2-{[(2S,4S)-4-[4-({4-[3-(2,4-dihydroxy-5-isopropylphenyl)-5-hydroxy-1,2,4-triazol-4-yl]phenyl}methyl)piperazin-1-yl]-1-methylpyrrolidin-2-yl]methoxy}-5H,6H,8H-pyrido[3,4-d]pyrimidin-4-yl]-1-(prop-2-enoyl)piperazin-2-yl]acetonitrile] as the molecule, how does the EC50 [1] read?
Its EC50 is 100 to 1000 nM.

And the IC50 (KRAS(G12C) [2])?
Its IC50 is less than 100 nM.

What about the DC50 (KRAS(G12C) [3]) of the same molecule?
The DC50 was greater than 1000 nM.

How did the EC50 [1] turn out when C=CC(=O)N1CCN(c2nc(OC[C@@H]3C[C@H](N4CCN(Cc5ccc(-n6c(C(=O)NCC)nnc6-c6cc(C(C)C)c(O)cc6O)cc5)CC4)CN3C)nc3c2CCN(c2cccc4ccc(F)c(Cl)c24)C3)C[C@@H]1CC#N [Compound 278, 4-[4-({4-[(3S,5S)-5-({[7-(8-chloro-7-fluoronaphthalen-1-yl)-4-[(3S)-3-(cyanomethyl)-4-(prop-2-enoyl)piperazin-1-yl]-5H,6H,8H-pyrido[3,4-d]pyrimidin-2-yl]oxy}methyl)-1-methylpyrrolidin-3-yl]piperazin-1-yl}methyl)phenyl]-5-(2,4-dihydroxy-5-isopropylphenyl)-N-ethyl-1,2,4-triazole-3-carboxamide] was run?
The EC50 was 100 to 1000 nM.

And the IC50 (KRAS(G12C) [2])?
The IC50 was less than 100 nM.

And the DC50 (KRAS(G12C) [3])?
The DC50 was 100 to 1000 nM.

C=CC(=O)N1CCN(c2nc(OC[C@@H]3C[C@H](N4CCN(Cc5ccc(-n6c(O)nnc6-c6cc(C(C)C)c(O)cc6O)cc5)CC4)CN3C)nc3c2CCN(c2cccc4cccc(C)c24)C3)C[C@@H]1CC#N [Compound 279, 2-[(2S)-4-(2-{[(2S,4S)-4-[4-({4-[3-(2,4-dihydroxy-5-isopropylphenyl)-5-hydroxy-1,2,4-triazol-4-yl]phenyl}methyl)piperazin-1-yl]-1-methylpyrrolidin-2-yl]methox-y}-7-(8-methylnaphthalen-1-yl)-5H,6H,8H-pyrido[3,4-d]pyrimidin-4-yl)-1-(prop-2-enoyl)piperazin-2-yl]acetonitrile] was tested. Which EC50 [1] did it give?
Its EC50 is 100 to 1000 nM.

And the IC50 (KRAS(G12C) [2])?
Its IC50 is less than 100 nM.

And the DC50 (KRAS(G12C) [3])?
The DC50 was 100 to 1000 nM.

Which results are given for C=CC(=O)N1CCN(c2nc(OC[C@@H]3C[C@H](N4CCN(Cc5ccc(-n6c(C(=O)NCC)nnc6-c6cc(C(C)C)c(O)cc6O)cc5)CC4)CN3C)nc3c2CCN(c2cccc4cccc(C)c24)C3)C[C@@H]1CC#N [Compound 280, 4-[4-({4-[(3S,5S)-5-[({4-[(3S)-3-(cyanomethyl)-4-(prop-2-enoyl)piperazin-1-yl]-7-(8-methylnaphthalen-1-yl)-5H,6H,8H-pyrido[3,4-d]pyrimidin-2-yl}oxy)methyl]-1-methylpyrrolidin-3-yl]piperazin-1-yl}methyl)phenyl]-5-(2,4-dihydroxy-5-iso-propylphenyl)-N-ethyl-1,2,4-triazole-3-carboxamide]?
EC50 [1]: < 100 nM; IC50 (KRAS(G12C) [2]): < 100 nM; DC50 (KRAS(G12C) [3]): 100 to 1000 nM

What does the source list for C=CC(=O)N1CCN(c2nc(OC[C@@H]3CC[C@H](CN4CCN(Cc5ccc(-n6c(O)nnc6-c6cc(C(C)C)c(O)cc6O)cc5)CC4)N3C)nc3c2CCN(c2cccc(C)c2C)C3)C[C@@H]1CC#N [Compound 281, 2-[(2S)-4-(2-{[(2S,5R)-5-{[4-({4-[3-(2,4-dihydroxy-5-isopropylphenyl)-5-hydroxy-1,2,4-triazol-4-yl]phenyl}methyl)piperazin-1-yl]methyl}-1-methylpyrrolidin-2-yl]methoxy}-7-(2,3-dimethylphenyl)-5H,6H,8H-pyrido[3,4-d]pyrimidin-4-yl)-1-(prop-2-enoyl)piperazin-2-yl]acetonitrile]?
EC50 [1]: 100 to 1000 nM; IC50 (KRAS(G12C) [2]): < 100 nM; DC50 (KRAS(G12C) [3]): 100 to 1000 nM

For C=CC(=O)N1CCN(c2nc(OC[C@@H]3CC[C@H](CN4CCN(Cc5ccc(-n6c(C(=O)NCC)nnc6-c6cc(C(C)C)c(O)cc6O)cc5)CC4)N3C)nc3c2CCN(c2cccc(C)c2C)C3)C[C@@H]1CC#N [Compound 282, 4-{4-[(4-{[(2R,5S)-5-[({4-[(3S)-3-(cyanomethyl)-4-(prop-2-enoyl)piperazin-1-yl]-7-(2,3-dimethylphenyl)-5H,6H,8H-pyrido[3,4-d]pyrimidin-2-yl}oxy)methyl]-1-methylpyrrolidin-2-yl]methyl}piperazin-1-yl)methyl]phenyl}-5-(2,4-dihydroxy-5-isopropylphenyl)-N-ethyl-1,2,4-triazole-3-carboxamide], which EC50 [1] is on record?
Its EC50 is 100 to 1000 nM.

What about the IC50 (KRAS(G12C) [2]) of the same molecule?
The IC50 was less than 100 nM.

What about the DC50 (KRAS(G12C) [3]) of the same molecule?
Its DC50 is 100 to 1000 nM.

C=CC(=O)N1CCN(c2nc(OC[C@@H]3C[C@H](N4CCN(C(=O)C5CCN(Cc6ccc(-n7c(C(=O)NCC)nnc7-c7cc(C(C)C)c(O)cc7O)cc6)CC5)CC4)CN3C)nc3c2CCN(c2cccc4cccc(Cl)c24)C3)C[C@@H]1CC#N [Compound 283, 4-{4-[(4-{4-[(3S,5S)-5-({[7-(8-chloronaphthalen-1-yl)-4-[(3S)-3-(cyanomethyl)-4-(prop-2-enoyl)piperazin-1-yl]-5H,6H,8H-pyrido[3,4-d]pyrimidin-2-yl]oxy}methyl)-1-methylpyrrolidin-3-yl]piperazine-1-carbonyl}piperidin-1-yl)methyl]phenyl}-5-(2,4-dihydroxy-5-isopropylphenyl)-N-ethyl-1,2,4-triazole-3-carboxamide] was tested. Which EC50 [1] did it give?
The EC50 was 100 to 1000 nM.

And the IC50 (KRAS(G12C) [2])?
The IC50 was less than 100 nM.

And the DC50 (KRAS(G12C) [3])?
Its DC50 is less than 100 nM.

For C=CC(=O)N1CCN(c2nc(OCC3(CN4CCN(Cc5ccc(-n6c(O)nnc6-c6cc(C(C)C)c(O)cc6O)cc5)CC4)CC3)nc3c2CCN(c2cccc4cccc(Cl)c24)C3)C[C@@H]1CC#N [Compound 284, 2-[(2S)-4-[7-(8-chloronaphthalen-1-yl)-2-[(1-{[4-({4-[3-(2,4-dihydroxy-5-isopropylphenyl)-5-hydroxy-1,2,4-triazol-4-yl]phenyl}methyl)piperazin-1-yl]methyl}cyclopropyl)methoxy]-5H,6H,8H-pyrido[3,4-d]pyrimidin-4-yl]-1-(prop-2-enoyl)piperazin-2-yl]acetonitrile], which EC50 [1] is on record?
The EC50 was 100 to 1000 nM.

What about the IC50 (KRAS(G12C) [2]) of the same molecule?
Its IC50 is less than 100 nM.

What about the DC50 (KRAS(G12C) [3]) of the same molecule?
The DC50 was 100 to 1000 nM.
